According to patent US5013850A, “4-ethyl and 4-ethenyl-5-hydroxy-2(5H)-furanones substituted on alpha carbon of the ethyl or ethenyl side chain with a long chain alkyl group and on the beta carbon with a polar group, as anti-inflammatory agents” (Allergan, Inc., priority 1990, dated 1991):
pIC50: −log10 of the molar value.

Tested on: phosphoinositide-specific phospholipase C
Experiment: not given
Conditions: Bennett et al, Molecular Pharmacology 32:587-593 (1987); cited from earlier work

| SMILES | inhibition of phosphoinositide-specific phospholipase C |
| --- | --- |
| CC(=CCCC1=CCC(C2=CC(=O)OC2O)OC1O)CCC1=C(C)CCCC1(C)C (centres unmarked) [Compound 1] | This activity has been reported for manoalide |

Tested on: not given
Experiment: not given
Conditions: U.S. Pat. No. 4,447,445; European Patent Application No. 0133376; cited from earlier work

| SMILES | biological activity |
| --- | --- |
| CC(=CCCC(C=O)=CCC(O)C1=CC(=O)OC1O)CCC1=C(C)CCCC1(C)C (centres unmarked) [Compound 2] | anti-inflammatory inflammatory activity |
| CC(=CCCC(C=O)=CC=CC1=CC(=O)OC1O)CCC1=C(C)CCCC1(C)C (centres unmarked) [Compound 3] | anti-inflammatory inflammatory activity |
| CC(=CCCC1=CCC(C2=CC(=O)OC2O)OC1O)CCC1=C(C)CCCC1(C)C (centres unmarked) [Compound 1] | anti-inflammatory, immunosuppressive and analgesic properties |

Molecular target: bee venom phospholipase A2 (Apis mellifera, UniProt P00630)
Sequence (P00630 34-167 limits assumed): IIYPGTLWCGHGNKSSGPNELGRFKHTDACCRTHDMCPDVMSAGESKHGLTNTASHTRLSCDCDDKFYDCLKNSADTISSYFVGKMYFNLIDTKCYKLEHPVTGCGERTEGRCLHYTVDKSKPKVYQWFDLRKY
Experiment: biochemical
Conditions: read-out: IC50, Phospholipase A2 Assay (50% inhibition of bee venom phospholipase A2)

| SMILES | pIC50 |
| --- | --- |
| CCCCCCCCCCCCC(=CP(=O)(OCC)OCC)C1=CC(=O)OC1O (centres unmarked) [Compound 24, 4-[(1-Dodecyl-2-diethylphosphonyl)-1-ethenyl]-5-hydroxy-2(5H)-furanone] | 7.10 |
| CCCCCCCCCCCCC(CP(=O)(OCC)OCC)C1=CC(=O)OC1O (centres unmarked) [Compound 13, 4-[1-(diethylphosphonyl)methyl]tridecyl-5-hydroxy-2(5H)-furanone] | 7.00 |
| CCCCCCCCCCCCC(CC(=O)C(F)(F)F)C1=CC(=O)OC1O (centres unmarked) [Compound 9, 4-[1-(3,3,3-Trifluoro-2-oxo)propyl]tridecyl-5-hydroxy-2(5H)-furanone] | 6.38 |
| CCCCCCCCCCCCC(C1=CC(=O)OC1O)C(C(=O)OC)C(=O)OC (centres unmarked) [Compound 11, 4-[-(1,1-Bis(carbomethoxy)methyl)tridecyl]-5-hydroxy-2(5H)-furanone] | 7.10 |
| CCCCCCCCCCCCC(=CC(=O)C(F)(F)F)C1=CC(=O)OC1O (centres unmarked) [Compound 23, (E),(Z)-4-[(1-Dodecyl-3-oxo-4,4,4-trifluoro)-1-butenyl]-5-hydroxy-2(5H)-furanone] | 7.40 |
| CCCCCCCCCCCCC(CC(C)(C)O)C1=CC(=O)OC1O (centres unmarked) [Compound 10, 4-[1-(2-Hydroxy-2-methylpropyl)tridecyl]-5-hydroxy-2(5H)-furanone] | < 6.00 |
| CCCCCCCCCCCCC(CC(=O)OCC)C1=CC(=O)OC1O (centres unmarked) [Compound 7, 4-[1-(Ethoxycarbonylmethyl)tridecyl]-5-hydroxy-2(5H)-furanone] | 6.59 |
| CC(=CCCC1=CCC(C2=CC(=O)OC2O)OC1O)CCC1=C(C)CCCC1(C)C (centres unmarked) [Compound 1] | 7.52 |
| CCCCCCCCCCCCC(CC(C)=O)C1=CC(=O)OC1O (centres unmarked) [Compound 8, 4-[1-(2-oxopropyl)tridecyl]-5-hydroxy-2(5H)-furanone] | 7.05 |
| CCCCCCCCCCCCC(CC(=O)O)C1=CC(=O)OC1O (centres unmarked) [Compound 12, 4-[1-(Carboxymethyl)tridecyl]-5-hydroxy-2(5H)-furanone] | 6.89 |
